System: MV-4-11 cells
Assay: Gene expression microarray analysis (Affymetrix PrimeView) and GSEA
Type: cell-based, human
Set-up: RFU PODN (11730768_x_at) / Fold change /veh PODN (11730768_x_at) / RFU LINC00158 (11744669_a_at) / Fold change /veh LINC00158 (11744669_a_at) / RFU DUSP10 (11751237_a_at) / Fold change /veh DUSP10 (11751237_a_at) / RFU ID3 (11757404_x_at) / Fold change /veh ID3 (11757404_x_at) / RFU PLEKHG5 (11737974_s_at) / Fold change /veh PLEKHG5 (11737974_s_at) / RFU LRRC4B (11730491_at) / Fold change /veh LRRC4B (11730491_at) / RFU GIMAP4 (11747438_a_at) / Fold change /veh GIMAP4 (11747438_a_at) / RFU KRT8 (11758183_x_at) / Fold change /veh KRT8 (11758183_x_at) / RFU CNN1 (11734310_a_at) / Fold change /veh CNN1 (11734310_a_at) / RFU VPS37D (11726825_at) / Fold change /veh VPS37D (11726825_at) / RFU C10orf10 (11716522_x_at) / Fold change /veh C10orf10 (11716522_x_at) / RFU KIR2DL2 /// KIR2DL4 /// KIR2DL5A /// KIR2DL5B /// KIR2DS1 /// KIR2DS2 /// KIR2DS3 /// KIR2DS4 /// KIR3DL3 /// KIR3DL3 /// KIR3DS1 (11738374_at) / Fold change /veh KIR2DL2 /// KIR2DL4 /// KIR2DL5A /// KIR2DL5B /// KIR2DS1 /// KIR2DS2 /// KIR2DS3 /// KIR2DS4 /// KIR3DL3 /// KIR3DL3 /// KIR3DS1 (11738374_at) / RFU C1QL1 (11718748_at) / Fold change /veh C1QL1 (11718748_at) / RFU TMPRSS4 (11747572_a_at) / Fold change /veh TMPRSS4 (11747572_a_at) / RFU HAMP (11756126_x_at) / Fold change /veh HAMP (11756126_x_at) / RFU RNFT2 (11725882_a_at) / Fold change /veh RNFT2 (11725882_a_at) / RFU NR4A2 (11747474_a_at) / Fold change /veh NR4A2 (11747474_a_at) / RFU ABCC12 (11746883_a_at) / Fold change /veh ABCC12 (11746883_a_at) / RFU TMEM136 (11760407_x_at) / Fold change /veh TMEM136 (11760407_x_at) / RFU CLDN22 /// WWC2 (11732394_at) / Fold change /veh CLDN22 /// WWC2 (11732394_at) / RFU HLA-DPB1 (11760878_x_at) / Fold change /veh HLA-DPB1 (11760878_x_at) / RFU SPINT1 (11716480_a_at) / Fold change /veh SPINT1 (11716480_a_at) / RFU GAP43 (11754022_s_at) / Fold change /veh GAP43 (11754022_s_at) / RFU A4GNT (11735810_at) / Fold change /veh A4GNT (11735810_at) / RFU PRB3 (11715151_x_at) / Fold change /veh PRB3 (11715151_x_at) / RFU TUBB4B (11761932_at) / Fold change /veh TUBB4B (11761932_at) / RFU CAPN14 (11732068_a_at) / Fold change /veh CAPN14 (11732068_a_at) / RFU TMCC2 (11721928_a_at) / Fold change /veh TMCC2 (11721928_a_at) / RFU IRGQ (11745062_a_at) / Fold change /veh IRGQ (11745062_a_at) / RFU FAM174B (11720279_a_at) / Fold change /veh FAM174B (11720279_a_at) / RFU TMPRSS4 (11748680_a_at) / Fold change /veh TMPRSS4 (11748680_a_at) / RFU FAM212B (11763350_a_at) / Fold change /veh FAM212B (11763350_a_at) / RFU PLEKHG5 (11743358_a_at) / Fold change /veh PLEKHG5 (11743358_a_at) / RFU ZSCAN30 (11745921_a_at) / Fold change /veh ZSCAN30 (11745921_a_at) / RFU CMKLR1 (11741424_a_at) / Fold change /veh CMKLR1 (11741424_a_at) / RFU LOC101060620 /// MAPK8IP1 (11723275_at) / Fold change /veh LOC101060620 /// MAPK8IP1 (11723275_at) / RFU SPTSSB (11747773_x_at) / Fold change /veh SPTSSB (11747773_x_at) / RFU PRSS12 (11739890_at) / Fold change /veh PRSS12 (11739890_at) / RFU BIN1 (11741810_x_at) / Fold change /veh BIN1 (11741810_x_at) / RFU WNT11 (11732464_a_at) / Fold change /veh WNT11 (11732464_a_at) / RFU C10orf10 (11716521_a_at) / Fold change /veh C10orf10 (11716521_a_at) / RFU C5orf56 (11738089_at) / Fold change /veh C5orf56 (11738089_at) / RFU CYB561 (11721691_x_at) / Fold change /veh CYB561 (11721691_x_at) / RFU ANKRD19P (11752326_a_at) / Fold change /veh ANKRD19P (11752326_a_at) / RFU OR2T12 /// OR2T33 /// OR2T8 (11738714_s_at) / Fold change /veh OR2T12 /// OR2T33 /// OR2T8 (11738714_s_at) / RFU VCAN (11748164_a_at) / Fold change /veh VCAN (11748164_a_at) / RFU JSRP1 (11732532_at) / Fold change /veh JSRP1 (11732532_at) / RFU KRTAP10-11 (11738290_x_at) / Fold change /veh KRTAP10-11 (11738290_x_at) / RFU MYO3A (11730013_a_at) / Fold change /veh MYO3A (11730013_a_at) / RFU EBF3 (11725865_a_at) / Fold change /veh EBF3 (11725865_a_at) / RFU CAMK2N1 (11719241_x_at) / Fold change /veh CAMK2N1 (11719241_x_at) / RFU C5orf56 (11738088_a_at) / Fold change /veh C5orf56 (11738088_a_at) / RFU OLFML3 (11715873_a_at) / Fold change /veh OLFML3 (11715873_a_at) / RFU LOC100653217 /// NTM (11731650_a_at) / Fold change /veh LOC100653217 /// NTM (11731650_a_at) / RFU MAPK11 (11762145_a_at) / Fold change /veh MAPK11 (11762145_a_at) / RFU FIZ1 (11724087_x_at) / Fold change /veh FIZ1 (11724087_x_at) / RFU OASL (11726364_x_at) / Fold change /veh OASL (11726364_x_at) / RFU SOX15 (11748057_x_at) / Fold change /veh SOX15 (11748057_x_at) / RFU CD79A (11719716_a_at) / Fold change /veh CD79A (11719716_a_at) / RFU HIST1H1D (11736915_at) / Fold change /veh HIST1H1D (11736915_at) / RFU CASKIN2 (11723855_a_at) / Fold change /veh CASKIN2 (11723855_a_at) / RFU LOC730098 (11760151_x_at) / Fold change /veh LOC730098 (11760151_x_at) / RFU OR4N2 (11742367_at) / Fold change /veh OR4N2 (11742367_at) / RFU PRRT2 (11749266_a_at) / Fold change /veh PRRT2 (11749266_a_at) / RFU SNX32 (11753110_a_at) / Fold change /veh SNX32 (11753110_a_at) / RFU CDHR5 (11726645_a_at) / Fold change /veh CDHR5 (11726645_a_at) / RFU RCAN1 (11760418_a_at) / Fold change /veh RCAN1 (11760418_a_at) / RFU FAM167A (11723789_a_at) / Fold change /veh FAM167A (11723789_a_at) / RFU FAM26E (11764081_at) / Fold change /veh FAM26E (11764081_at) / RFU ISYNA1 (11749810_s_at) / Fold change /veh ISYNA1 (11749810_s_at) / RFU ACY1 (11761880_at) / Fold change /veh ACY1 (11761880_at) / RFU 11764098_at / Fold change /veh 11764098_at / RFU SAMD14 (11745864_x_at) / Fold change /veh SAMD14 (11745864_x_at) / RFU NPB (11741838_a_at) / Fold change /veh NPB (11741838_a_at) / RFU TMPRSS6 (11731388_a_at) / Fold change /veh TMPRSS6 (11731388_a_at) / RFU KRTAP10-2 (11738614_at) / Fold change /veh KRTAP10-2 (11738614_at) / RFU ARHGAP8 /// PRR5-ARHGAP8 (11727945_x_at) / Fold change /veh ARHGAP8 /// PRR5-ARHGAP8 (11727945_x_at) / RFU KRTAP5-7 /// NADSYN1 (11734609_at) / Fold change /veh KRTAP5-7 /// NADSYN1 (11734609_at) / RFU RASL12 (11751679_a_at) / Fold change /veh RASL12 (11751679_a_at) / RFU CDKN2B (11736163_a_at) / Fold change /veh CDKN2B (11736163_a_at) / RFU PRF1 (11729649_at) / Fold change /veh PRF1 (11729649_at) / RFU, ZNF638 /// ZNF638-IT1 / Fold change vs veh, ZNF638 /// ZNF638-IT1 / RFU, PANK3 / Fold change vs veh, PANK3 / RFU, SH3YL1 / Fold change vs veh, SH3YL1 / RFU, ZEB2 / Fold change vs veh, ZEB2 / RFU, NRIP1 / Fold change vs veh, NRIP1 / RFU, PTTG1IP / Fold change vs veh, PTTG1IP / RFU, CAPN2 / Fold change vs veh, CAPN2 / RFU, MED14 / Fold change vs veh, MED14 / RFU, SNORA58 / Fold change vs veh, SNORA58 / RFU, C1orf63 / Fold change vs veh, C1orf63 / RFU, LRRFIP1 / Fold change vs veh, LRRFIP1 / RFU, NDUFAF7 / Fold change vs veh, NDUFAF7 / RFU, SLC12A2 / Fold change vs veh, SLC12A2 / RFU, IBTK / Fold change vs veh, IBTK / RFU, ESF1 / Fold change vs veh, ESF1 / Fold change vs veh, TMEM50B / RFU, TAOK1 / Fold change vs veh, TAOK1 / RFU, ACBD3 / Fold change vs veh, ACBD3 / RFU, TMA16 / Fold change vs veh, TMA16 / RFU, RWDD3 / Fold change vs veh, RWDD3 / RFU, BCAT1 / Fold change vs veh, BCAT1 / RFU, EDEM3 / Fold change vs veh, EDEM3 / RFU, TMEM33 / Fold change vs veh, TMEM33 / RFU, WDR75 / Fold change vs veh, WDR75 / RFU, AHCTF1 / Fold change vs veh, AHCTF1 / RFU, TFRC / Fold change vs veh, TFRC / RFU, ZDHHC17 / Fold change vs veh, ZDHHC17 / RFU, NOM1 / Fold change vs veh, NOM1 / RFU, ARL8B / Fold change vs veh, ARL8B / RFU, ZBTB11 / Fold change vs veh, ZBTB11 / RFU, TAMM41 / Fold change vs veh, TAMM41 / RFU, KIAA1704 /// LOC100996395 / Fold change vs veh, KIAA1704 /// LOC100996395 / RFU, ING1 / Fold change vs veh, ING1 / RFU, TRMT61B / Fold change vs veh, TRMT61B / RFU, FUBP3 / Fold change vs veh, FUBP3 / RFU, TP53 / Fold change vs veh, TP53 / RFU, TNKS2 / Fold change vs veh, TNKS2 / RFU, ZFP14 / Fold change vs veh, ZFP14 / RFU, ACTR2 / Fold change vs veh, ACTR2 / RFU, PPP3R1 / Fold change vs veh, PPP3R1 / RFU, PIK3R1 / Fold change vs veh, PIK3R1 / RFU, HNRNPA1 / Fold change vs veh, HNRNPA1 / RFU, RNF170 / Fold change vs veh, RNF170 / RFU, ZNF28 / Fold change vs veh, ZNF28 / RFU, RNGTT / Fold change vs veh, RNGTT / RFU, OGT / Fold change vs veh, OGT / RFU, BRD1 / Fold change vs veh, BRD1 / RFU, MARS / Fold change vs veh, MARS / RFU, ZNF655 / Fold change vs veh, ZNF655 / RFU, FAHD1 / Fold change vs veh, FAHD1 / RFU, BDP1 / Fold change vs veh, BDP1 / RFU, LRRCC1 / Fold change vs veh, LRRCC1 / RFU, ARID1A / Fold change vs veh, ARID1A / RFU, ZNF146 / Fold change vs veh, ZNF146 / RFU, ZNF330 / Fold change vs veh, ZNF330 / RFU, GPN3 / Fold change vs veh, GPN3 / RFU, C9orf123 / Fold change vs veh, C9orf123 / RFU, N4BP2L2 / Fold change vs veh, N4BP2L2 / RFU, ARFIP1 / Fold change vs veh, ARFIP1 / RFU, FAM179B / Fold change vs veh, FAM179B / RFU, BCL10 / Fold change vs veh, BCL10 / RFU, UHRF1BP1L / Fold change vs veh, UHRF1BP1L / RFU, BET1 / Fold change vs veh, BET1 / RFU, CNOT2 / Fold change vs veh, CNOT2 / RFU, ZNF268 / Fold change vs veh, ZNF268 / Fold change vs veh, ZNF507 / RFU, DGCR2 / Fold change vs veh, DGCR2 / RFU, WDSUB1 / Fold change vs veh, WDSUB1 / Fold change vs veh, HSP90B1 /// MIR3652 / RFU, ADSS / Fold change vs veh, ADSS / RFU, GK / Fold change vs veh, GK / RFU, ZNF148 / Fold change vs veh, ZNF148 / RFU, TAF9 / Fold change vs veh, TAF9 / RFU, SLC1A5 / Fold change vs veh, SLC1A5 / RFU, SLMO2 / Fold change vs veh, SLMO2 / RFU, ABCC4 / Fold change vs veh, ABCC4 / RFU, LOC101060439 /// RAP1B / Fold change vs veh, LOC101060439 /// RAP1B / RFU, RFX7 / Fold change vs veh, RFX7 / RFU, GTPBP10 / Fold change vs veh, GTPBP10 / RFU, CNEP1R1 / Fold change vs veh, CNEP1R1 / RFU, BIVM-ERCC5 /// ERCC5 / Fold change vs veh, BIVM-ERCC5 /// ERCC5 / RFU, ILF3 / Fold change vs veh, ILF3 / RFU 11762660_at / Fold change /veh 11762660_at / RFU VCAN (11757783_s_at) / Fold change /veh VCAN (11757783_s_at) / RFU DDX43 (11728927_at) / Fold change /veh DDX43 (11728927_at) / RFU KRT8 (11758188_x_at) / Fold change /veh KRT8 (11758188_x_at) / RFU NKD1 (11759106_at) / Fold change /veh NKD1 (11759106_at) / RFU SRD5A1 (11742802_a_at) / Fold change /veh SRD5A1 (11742802_a_at) / RFU TPSAB1 /// TPSB2 (11721975_s_at) / Fold change /veh TPSAB1 /// TPSB2 (11721975_s_at) / RFU GSTM3 (11746129_a_at) / Fold change /veh GSTM3 (11746129_a_at) / RFU IL23R (11737362_x_at) / Fold change /veh IL23R (11737362_x_at) / RFU TMEM51 (11727254_a_at) / Fold change /veh TMEM51 (11727254_a_at) / RFU PIWIL2 (11732686_x_at) / Fold change /veh PIWIL2 (11732686_x_at) / RFU ORM1 (11744905_x_at) / Fold change /veh ORM1 (11744905_x_at) / RFU CCDC152 (11743942_at) / Fold change /veh CCDC152 (11743942_at) / RFU ECM1 (11717891_a_at) / Fold change /veh ECM1 (11717891_a_at) / RFU IL23R (11748794_a_at) / Fold change /veh IL23R (11748794_a_at) / RFU TNFAIP8L3 (11732012_x_at) / Fold change /veh TNFAIP8L3 (11732012_x_at) / RFU MBOAT4 (11741988_at) / Fold change /veh MBOAT4 (11741988_at) / RFU 11764193_at / Fold change /veh 11764193_at / RFU TMEM53 (11763286_at) / Fold change /veh TMEM53 (11763286_at) / RFU MAGEB2 (11727129_at) / Fold change /veh MAGEB2 (11727129_at) / RFU TMEM200A (11744735_a_at) / Fold change /veh TMEM200A (11744735_a_at) / RFU CCDC152 (11751479_a_at) / Fold change /veh CCDC152 (11751479_a_at) / RFU FAM211A (11726209_a_at) / Fold change /veh FAM211A (11726209_a_at) / RFU RGS16 (11746705_a_at) / Fold change /veh RGS16 (11746705_a_at) / RFU VCAN (11755009_s_at) / Fold change /veh VCAN (11755009_s_at) / RFU RHOB (11743442_s_at) / Fold change /veh RHOB (11743442_s_at) / RFU RGS16 (11720943_a_at) / Fold change /veh RGS16 (11720943_a_at) / RFU RGS16 (11720944_at) / Fold change /veh RGS16 (11720944_at) / RFU, VPS4B / Fold change vs veh, VPS4B / RFU, CREB1 / Fold change vs veh, CREB1 / RFU, DNAJC13 / Fold change vs veh, DNAJC13 / RFU, GNAQ / Fold change vs veh, GNAQ / RFU, CDK5R1 / Fold change vs veh, CDK5R1 / RFU, ZRANB3 / Fold change vs veh, ZRANB3 / RFU, CUL4A / Fold change vs veh, CUL4A / RFU, CCNY / Fold change vs veh, CCNY / RFU, UFL1 / Fold change vs veh, UFL1 / RFU, COG3 / Fold change vs veh, COG3 / RFU, DIAPH2 / Fold change vs veh, DIAPH2 / RFU, SKA2 / Fold change vs veh, SKA2 / RFU, AFF3 / Fold change vs veh, AFF3 / RFU, LMF1 / Fold change vs veh, LMF1 / RFU, IPO11 / Fold change vs veh, IPO11 / RFU, DFFB / Fold change vs veh, DFFB / RFU, FOXP1 / Fold change vs veh, FOXP1 / RFU, CARD8 / Fold change vs veh, CARD8 / RFU, STRN3 / Fold change vs veh, STRN3 / RFU, ADK / Fold change vs veh, ADK / RFU, RASSF2 / Fold change vs veh, RASSF2 / RFU, WIPF1 / Fold change vs veh, WIPF1 / RFU, LARP1B / Fold change vs veh, LARP1B / RFU, RASA1 / Fold change vs veh, RASA1 / RFU, RB1 / Fold change vs veh, RB1 / RFU, PPFIA1 / Fold change vs veh, PPFIA1 / RFU, MAT2A / Fold change vs veh, MAT2A / RFU, CCT5 / Fold change vs veh, CCT5 / RFU, WDR92 / Fold change vs veh, WDR92 / RFU, CUX1 / Fold change vs veh, CUX1 / RFU, TTC7A / Fold change vs veh, TTC7A / RFU, TMEM135 / Fold change vs veh, TMEM135 / RFU, DEPTOR / Fold change vs veh, DEPTOR / RFU, CPM / Fold change vs veh, CPM / RFU, DNAJB6 / Fold change vs veh, DNAJB6 / RFU, CACNA2D3 / Fold change vs veh, CACNA2D3 / RFU, DTX4 / Fold change vs veh, DTX4 / RFU, TFCP2 / Fold change vs veh, TFCP2 / RFU, GMCL1 /// GMCL1P1 / Fold change vs veh, GMCL1 /// GMCL1P1 / RFU, AEBP2 / Fold change vs veh, AEBP2 / RFU, SNHG1 /// SNORD22 /// SNORD25 /// SNORD26 /// SNORD27 /// SNORD28 /// SNORD29 /// SNORD31 / Fold change vs veh, SNHG1 /// SNORD22 /// SNORD25 /// SNORD26 /// SNORD27 /// SNORD28 /// SNORD29 /// SNORD31 / Fold change (Aza/veh), C12orf56 (ProbeSet 11735607_a_at) / Fold change (ACY-1035/veh), C12orf56 (ProbeSet 11735607_a_at) / Fold change (Aza/veh), FGFR1OP (ProbeSet 11751329_s_at) / Fold change (ACY-1035/veh), FGFR1OP (ProbeSet 11751329_s_at) / Fold change (Aza/veh), VPS36 (ProbeSet 11739960_a_at) / Fold change (ACY-1035/veh), VPS36 (ProbeSet 11739960_a_at) / RFU SYPL1 (11715823_x_at) / Fold change /veh SYPL1 (11715823_x_at) / RFU IGFBP7 (11715501_s_at) / Fold change /veh IGFBP7 (11715501_s_at) / RFU REEP3 (11722064_at) / Fold change /veh REEP3 (11722064_at) / RFU IGLL1 (11728026_x_at) / Fold change /veh IGLL1 (11728026_x_at): dose or concentration left out as unconfirmed
Conditions: ProbeSet 11754362_a_at; LIST D

## Nc1ncn([C@@H]2O[C@H](CO)[C@@H](O)[C@H]2O)c(=O)n1 [azacitidine]
  RFU, TTC7A: 124.13 RFU

Source: article PMC5218480 (PLoS ONE, 2017)
